# Results as given in PubChem BioAssay AID278 (DTP/NCI, 2004).
# “And” between values parts separate entries of the source, which are not always exact repeats. Equal values may be shown once. Results filed as inconclusive are left out.
# System: nude mice, A549 intrarenal xenograft, tumor weight change
# Test: NCI In Vivo Anticancer Drug Screen. Data for tumor model A549 Human Adenocarcinoma of Lung with characteristics of Type II Alveolar Epithelial cells (intrarenal inoculation) in NU/NU BALB/C (nude) mice
# Settings: endpoint: mean tumor weight change, schedule: Q04DX003 (ip), higher = larger tumour
# Procedure, shortened: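 Activity is expressed as T/C: the treated-group value over the vehicle-treated control value. The measure was survival or tumor size in mice carrying transplantable tumors.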
# [1] = dose: 300.0 mg/kg/injection, vehicle: saline
# [2] = dose: 75.0 mg/kg/injection, vehicle: saline with Tween-80
# [3] = dose: 150.0 mg/kg/injection, vehicle: saline with Tween-80
# [4] = dose: 75.0 mg/kg/injection, vehicle: DMSO
# [5] = dose: 300.0 mg/kg/injection, vehicle: DMSO
# [6] = dose: 75.0 mg/kg/injection, vehicle: suspension in saline
# [7] = dose: 150.0 mg/kg/injection, vehicle: suspension in saline
# [8] = dose: 50.0 mg/kg/injection, vehicle: saline with Tween-80
# [9] = dose: 100.0 mg/kg/injection, vehicle: saline with Tween-80
# [10] = dose: 50.0 mg/kg/injection, vehicle: water
# [11] = dose: 100.0 mg/kg/injection, vehicle: water
# [12] = dose: 300.0 mg/kg/injection, vehicle: suspension in saline
# [13] = dose: 200.0 mg/kg/injection, vehicle: saline with Tween-80
compound,measurement,setting,value
CN=C(NC)c1ccc(NC(=O)/C=C\c2ccc(/C=C/C(=O)Nc3ccc(C(=NC)NC)cc3)cc2)cc1,T/C,"dose: 3.13 mg/kg/injection, vehicle: Klucel (hydroxypropylcellulose) (HPC)",47 % of control
same,T/C,"dose: 6.25 mg/kg/injection, vehicle: Klucel (hydroxypropylcellulose) (HPC)",67 % of control
same,T/C,"dose: 12.5 mg/kg/injection, vehicle: Klucel (hydroxypropylcellulose) (HPC)",47 % of control
CC(=O)NCCSSCCCCS(=O)O,T/C,"dose: 75.0 mg/kg/injection, vehicle: saline",111 % of control
same,T/C,"dose: 150.0 mg/kg/injection, vehicle: saline",60 % of control
same,T/C,[1],39 % of control
same,T/C,"dose: 600.0 mg/kg/injection, vehicle: saline",70 % of control
CC(O)CCC(=O)c1ccoc1 (stereo unspecified),T/C,"dose: 24.0 mg/kg/injection, vehicle: saline",186 % of control
same,T/C,"dose: 32.0 mg/kg/injection, vehicle: saline",82 % of control
CCCCCCNc1nc(NCCCCCC)c2[nH]c(NCCCCCC)nc2n1,T/C,[2],52 % of control
same,T/C,[3],117 % of control
CCCCNc1ccc2nnc(C)n2n1,T/C,[4],75 % of control
same,T/C,"dose: 150.0 mg/kg/injection, vehicle: DMSO",19 % of control
same,T/C,[5],65 % of control
Cc1ccc(NN=O)nc1,T/C,"dose: 5.0 mg/kg/injection, vehicle: water",79 % of control
same,T/C,"dose: 10.0 mg/kg/injection, vehicle: water",81 % of control
same,T/C,"dose: 20.0 mg/kg/injection, vehicle: water",61 % of control
same,T/C,"dose: 40.0 mg/kg/injection, vehicle: water",33 % of control
CN(C)/N=N/c1nc[nH]c1C(N)=O,T/C,[6],11 % of control
same,T/C,[7],48 % of control
same,T/C,"dose: 225.0 mg/kg/injection, vehicle: suspension in saline",8 % of control
Cc1nc(C(Cl)(Cl)Cl)[nH]c(=O)c1SCCO,T/C,"dose: 150.0 mg/kg/injection, vehicle: distilled water + Tween-80 + alcohol",31 % of control
same,T/C,"dose: 150.0 mg/kg/injection, vehicle: distilled water + alcohol",50 % of control
same,T/C,"dose: 300.0 mg/kg/injection, vehicle: distilled water + Tween-80 + alcohol",181 % of control
same,T/C,"dose: 300.0 mg/kg/injection, vehicle: distilled water + alcohol",26 % of control
same,T/C,"dose: 600.0 mg/kg/injection, vehicle: distilled water + alcohol",2 % of control
[NH-]C(CCC(N)=O)C(=O)O.[NH-]C(CCC(N)=O)C(=O)O.[Zn+2] (stereo unspecified),T/C,"dose: 25.0 mg/kg/injection, vehicle: saline with Tween-80",83 % of control
same,T/C,[8],29 % of control
same,T/C,[9],54 % of control
COc1ccc2c(c1)-c1nn(CCCN(C)C)c3ccc([N+](=O)[O-])c(c13)N2,T/C,"dose: 12.5 mg/kg/injection, vehicle: water",61 % of control
same,T/C,"dose: 25.0 mg/kg/injection, vehicle: water",81 % of control
same,T/C,[10],14 % of control
same,T/C,[11],27 % of control
O=c1[nH]cnc2c1cnn2CN1CCOCC1,T/C,"dose: 50.0 mg/kg/injection, vehicle: Klucel (hydroxypropylcellulose) (HPC)",166 % of control
same,T/C,"dose: 100.0 mg/kg/injection, vehicle: Klucel (hydroxypropylcellulose) (HPC)",72 % of control
ClCCCSSCCCCl,T/C,"dose: 62.5 mg/kg/injection, vehicle: saline with Tween-80",56 % of control
same,T/C,"dose: 125.0 mg/kg/injection, vehicle: saline with Tween-80",76 % of control
same,T/C,"dose: 250.0 mg/kg/injection, vehicle: saline with Tween-80",81 % of control
same,T/C,"dose: 500.0 mg/kg/injection, vehicle: saline with Tween-80",82 % of control
O=c1[nH]cnc2c1nnn2C1OC(CO)C(O)C1O (stereo unspecified),T/C,[7],83 % of control
same,T/C,[12],47 % of control
same,T/C,"dose: 600.0 mg/kg/injection, vehicle: suspension in saline",32 % of control
same,T/C,"dose: 1200.0 mg/kg/injection, vehicle: suspension in saline",38 % of control
c1cn[nH]c1,T/C,"dose: 113.9 mg/kg/injection, vehicle: saline",93 % of control
same,T/C,"dose: 151.9 mg/kg/injection, vehicle: saline",47 % of control
same,T/C,"dose: 202.5 mg/kg/injection, vehicle: saline",63 % of control
same,T/C,[1],46 % of control
O=NNc1cccnc1,T/C,[10],56 % of control and 75 % of control
same,T/C,[11],80 % of control
Nc1nc2n[nH]nc2c(=O)[nH]1,T/C,[6],45 % of control
same,T/C,[7],60 % of control
same,T/C,[12],22 % of control
NC(=S)N/N=C/c1cc(=O)c2cc(Cl)ccc2o1,T/C,[4],66 % of control
same,T/C,"dose: 150.0 mg/kg/injection, vehicle: other",15 % of control
same,T/C,[5],152 % of control
same,T/C,"dose: 300.0 mg/kg/injection, vehicle: other",29 % of control
same,T/C,"dose: 600.0 mg/kg/injection, vehicle: DMSO",150 % of control
same,T/C,"dose: 600.0 mg/kg/injection, vehicle: other",36 % of control
Cc1ccoc1,T/C,[8],78 % of control
same,T/C,[9],89 % of control
same,T/C,[13],75 % of control
CN(C)c1ccc2c(SCC(=O)OCC(=O)[C@@]3(O)CC[C@H]4[C@@H]5CCC6=CC(=O)C=C[C@]6(C)[C@H]5C(=O)C[C@@]43C)c3ccc(N(C)C)cc3nc2c1,T/C,"dose: 75.0 mg/kg/injection, vehicle: Klucel (hydroxypropylcellulose) (HPC)",52 % of control
same,T/C,"dose: 150.0 mg/kg/injection, vehicle: Klucel (hydroxypropylcellulose) (HPC)",62 % of control
same,T/C,"dose: 300.0 mg/kg/injection, vehicle: Klucel (hydroxypropylcellulose) (HPC)",96 % of control
COc1ccc(C[C@@H]2NC[C@@H](O)[C@@H]2OC(C)=O)cc1,T/C,"dose: 37.5 mg/kg/injection, vehicle: saline with Tween-80",87 % of control
same,T/C,[2],48 % of control
same,T/C,[3],86 % of control
Nc1ccc(S(=O)(=O)Nc2cnc3c(Cl)cccc3n2)cc1,T/C,"dose: 220.0 mg/kg/injection, vehicle: saline",70 % of control
same,T/C,"dose: 315.0 mg/kg/injection, vehicle: saline",53 % of control
same,T/C,"dose: 450.0 mg/kg/injection, vehicle: saline",43 % of control
same,T/C,"dose: 642.9 mg/kg/injection, vehicle: saline",52 % of control
Cn1c(=S)sc2nc3ccccc3n2c1=S,T/C,"dose: 30.0 mg/kg/injection, vehicle: saline with Tween-80",83 % of control
same,T/C,"dose: 60.0 mg/kg/injection, vehicle: saline with Tween-80",50 % of control
same,T/C,"dose: 120.0 mg/kg/injection, vehicle: saline with Tween-80",73 % of control
c1ccc2c3c(c4c(c2c1)CN(C1CCCCC1)CO4)OCN(C1CCCCC1)C3,T/C,"dose: 37.5 mg/kg/injection, vehicle: distilled water + Tween-80",65 % of control
C=Cc1cc(OC)c2c(c1)c(=O)oc1c2cc(OC)c2c(O)ccc(C3OC(C)C(O)C(C)(O)C3O)c21 (stereo unspecified),T/C,[5],32 % of control
NC(=S)N/N=C/c1ccc(O)cn1,T/C,[9],46 % of control
same,T/C,[13],57 % of control
same,T/C,"dose: 400.0 mg/kg/injection, vehicle: saline with Tween-80",53 % of control
O=c1[nH]cc(F)c(=O)[nH]1,T/C,"dose: 25.0 mg/kg/injection, vehicle: saline",207 % of control
same,T/C,"dose: 100.0 mg/kg/injection, vehicle: saline",28 % of control
